Laboratory results reported in publication PMC4805298, “Activation of Plant Innate Immunity by Extracellular High Mobility Group Box 3 and Its Inhibition by Salicylic Acid” (PLoS Pathogens, 2016).

What was measured:
[1] = target: T1, HMGB3 (Arabidopsis thaliana, UniProt P93047); test: photoaffinity crosslinking, immunoblot with anti-SA antibody; type: binding; conditions: 50 uM 4AzSA, PBS, on ice, 254 nm UV 30 mJ; covalent
T1 construct: ORF in pET30 Xa/LIC, 6xHis-tagged, E. coli BL21, Ni-NTA and Superdex 200 purified; ABRC ORF clone
T1 sequence (P93047 1-141): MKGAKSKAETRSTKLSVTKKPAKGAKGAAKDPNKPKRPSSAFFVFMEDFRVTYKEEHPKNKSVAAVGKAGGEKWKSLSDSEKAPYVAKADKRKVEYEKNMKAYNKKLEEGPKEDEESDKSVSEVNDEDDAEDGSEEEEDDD

[2] = target: T1, HMGB3; test: SPR competition on 3AESA chip; competition of 4AzSA photoaffinity crosslinking; type: binding; conditions: 1 uM HMGB3 in SPR; 50 uM 4AzSA in PBS for crosslinking; competitive

SMILES	photoaffinity crosslinking, immunoblot with anti-SA antibody [1]	SPR competition on 3AESA chip; competition of 4AzSA photoaffinity crosslinking [2]
[N-]=[N+]=Nc1ccc(C(=O)O)c(O)c1 [4AzSA, 4-azido SA]	HMGB3 was effectively crosslinked to 4AzSA by UV irradiation	
O=C(O)c1ccccc1O [SA, salicylic acid]		this binding was competed in the presence of increasing concentrations of SA
